Experimental data taken from article PMC6270516 (Molecules, 2013).
In brackets after ≈: the same amount, converted by molar mass.

Experiments:
physchem [1] = settings: fassgf or other biorelevant
physchem [2] = settings: simulated gastric fluid

Row | Compound | melting point | solubility (physchem [1]) [mg/mL] | solubility (physchem [2]) [mg/mL]
1 | CN1c2ccccc2C(=O)N2CCc3c(n(CCCBr)c4ccccc34)C21 (centres unmarked) | 130 to 132 °C |  | 
2 | CN1c2ccccc2C(=O)N2CCc3c(n(CCOCCOCCCl)c4ccccc34)C21 (centres unmarked) | 126 to 128 °C |  | 
3 | C=CCn1c2c(c3ccccc31)CCN1C(=O)c3ccccc3N(C)C21 (centres unmarked) [2-1, N13-Allylevodiamine] | 163 to 165 °C | 0.175 (≈ 510 µM) | 0.06 (≈ 175 µM)
4 | CCCCn1c2c(c3ccccc31)CCN1C(=O)c3ccccc3N(C)C21 (centres unmarked) [2-2, N13-Butylevodiamine] | 141 to 143 °C | > 0.334 | > 0.12
5 | CCCCCn1c2c(c3ccccc31)CCN1C(=O)c3ccccc3N(C)C21 (centres unmarked) [2-3, N13-Pentylevodiamine] | 143 to 145 °C | 0.322 (≈ 862 µM) | 0.06 to 0.12 (≈ 161 to 321 µM)
6 | CC(C)=CCn1c2c(c3ccccc31)CCN1C(=O)c3ccccc3N(C)C21 (centres unmarked) [2-4, N13-(3-Methyl-2-butenyl)evodiamine] |  | 0.162 (≈ 436 µM) | 0.06 (≈ 162 µM)
7 | CCCCCCCCn1c2c(c3ccccc31)CCN1C(=O)c3ccccc3N(C)C21 (centres unmarked) [2-5, N13-Octylevodiamine] | 65 to 67 °C | 0.0723 (≈ 174 µM) | 0.03 (≈ 72.2 µM)
8 | CN1c2ccccc2C(=O)N2CCc3c(n(CCCc4ccccc4)c4ccccc34)C21 (centres unmarked) [2-6, N13-(3-Phenylpropyl)evodiamine] | 158 to 160 °C | 0.143 (≈ 338 µM) | 0.06 (≈ 142 µM)
9 | CC(C)Cn1c2c(c3ccccc31)CCN1C(=O)c3ccccc3N(C)C21 (centres unmarked) [2-7, N13-Isobutylevodiamine] | 154 to 156 °C | > 0.31 | > 0.11
10 | CC(C)CCn1c2c(c3ccccc31)CCN1C(=O)c3ccccc3N(C)C21 (centres unmarked) [2-8, N13-Isopentylevodiamine] | 108 to 110 °C | > 0.373 | > 0.15
11 | CN1c2ccccc2C(=O)N2CCc3c(n(CCCCl)c4ccccc34)C21 (centres unmarked) [2-9, N13-(3-Chloropropyl)evodiamine] | 118 to 120 °C | 0.322 (≈ 848 µM) | 0.06 to 0.12 (≈ 158 to 316 µM)
12 | CN1c2ccccc2C(=O)N2CCc3c(n(CCCCCl)c4ccccc34)C21 (centres unmarked) [2-11, N13-(4-Chlorobutyl)evodiamine] | 127 to 129 °C | 0.273 (≈ 693 µM) | 0.098 (≈ 249 µM)
13 | CN1c2ccccc2C(=O)N2CCc3c(n(CC(=O)c4ccccc4)c4ccccc34)C21 (centres unmarked) [2-13, N13-(Benzonylmethyl)evodiamine] | 245 °C (dec.) | 0.0737 to 0.147 (≈ 175 to 349 µM) | 0.03 to 0.06 (≈ 71.2 to 142 µM)
14 | COCCn1c2c(c3ccccc31)CCN1C(=O)c3ccccc3N(C)C21 (centres unmarked) [2-14, N13-(2-Methoxyethyl)evodiamine] | 166 to 168 °C | 0.0416 to 0.0831 (≈ 115 to 230 µM) | 0.015 to 0.03 (≈ 41.5 to 83 µM)
15 | CCCCOCCn1c2c(c3ccccc31)CCN1C(=O)c3ccccc3N(C)C21 (centres unmarked) [2-15, N13-(2-Butoxyethyl)evodiamine] | 68 to 70 °C | 0.0744 to 0.298 (≈ 184 to 738 µM) | 0.03 to 0.12 (≈ 74.3 to 297 µM)
16 | COCCOCCn1c2c(c3ccccc31)CCN1C(=O)c3ccccc3N(C)C21 (centres unmarked) [2-17, N13-(2-(2-Methoxyethoxy)ethyl)evodiamine] | 116 to 118 °C | 0.148 (≈ 365 µM) | 0.06 (≈ 148 µM)
17 | CCOC(Cn1c2c(c3ccccc31)CCN1C(=O)c3ccccc3N(C)C21)OCC (centres unmarked) [2-18, N13-(2,2-Diethoxyethyl)evodiamine] | 117 to 119 °C | 0.286 (≈ 682 µM) | > 0.12

Row | Compound | melting point | solubility (physchem [1]) [mg/mL] | solubility (physchem [2]) [mg/mL]
18 | CC(=O)OCCn1c2c(c3ccccc31)CCN1C(=O)c3ccccc3N(C)C21 (centres unmarked) [2-19, N13-(2-Acetoxyethyl)evodiamine] | 211 to 213 °C | 0.308 (≈ 791 µM) | > 0.12
19 | CC(=O)OCCCn1c2c(c3ccccc31)CCN1C(=O)c3ccccc3N(C)C21 (centres unmarked) [2-20, N13-(3-Acetoxypropyl)evodiamine] |  | 0.278 (≈ 689 µM) | > 0.12
20 | CCC(=O)OCCn1c2c(c3ccccc31)CCN1C(=O)c3ccccc3N(C)C21 (centres unmarked) [2-21, N13-(2-Propionyloxyethyl)evodiamine] | 205 to 206 °C | > 0.308 | > 0.12
21 | CCOC(=O)CCn1c2c(c3ccccc31)CCN1C(=O)c3ccccc3N(C)C21 (centres unmarked) [2-22, N13-(2-(Ethoxycarbonyl)ethyl)evodiamine] |  | 0.265 (≈ 657 µM) | > 0.12
22 | CCOC(=O)CCCn1c2c(c3ccccc31)CCN1C(=O)c3ccccc3N(C)C21 (centres unmarked) [2-23, N13-(3-(Ethoxycarbonyl)propyl)evodiamine] | 265 to 268 °C | 0.0719 (≈ 172 µM) | 0.03 (≈ 71.9 µM)
23 | CN1c2ccccc2C(=O)N2CCc3c(n(CC4CO4)c4ccccc34)C21 (centres unmarked) [2-24, N13-((Oxiran-2-yl)methyl)evodiamine] | 189 to 191 °C | 0.0557 (≈ 155 µM) | 0.02 (≈ 55.6 µM)
24 | CN1c2ccccc2C(=O)N2CCc3c(n(CCCCCBr)c4ccccc34)C21 (centres unmarked) [2-26, N13-(5-Bromopentyl)evodiamine] |  | 0.132 (≈ 292 µM) | 0.0678 (≈ 150 µM)
25 | CCCOC(=O)Cn1c2c(c3ccccc31)CCN1C(=O)c3ccccc3N(C)C21 (centres unmarked) [2-27, N13-(Propoxycarbonylmethyl)evodiamine] | 168 to 170 °C | 0.132 (≈ 326 µM) | 0.0729 (≈ 181 µM)
26 | CCOC(=O)CCCCn1c2c(c3ccccc31)CCN1C(=O)c3ccccc3N(C)C21 (centres unmarked) [2-28, N13-(4-(Ethoxycarbonyl)butyl)evodiamine] | 251 to 253 °C | 0.166 (≈ 384 µM) | 0.0894 (≈ 207 µM)
27 | CN1c2ccccc2C(=O)N2CCc3c(n(CCCCCn4c5c(c6ccccc64)CCN4C(=O)c6ccccc6N(C)C54)c4ccccc34)C21 (centres unmarked) [3-1, 1,5-Bis-(evodiamin-N13-yl)pentane] | 217 to 219 °C | > 0.35 | > 0.12
28 | CN1c2ccccc2C(=O)N2CCc3c(n(CCCCCCn4c5c(c6ccccc64)CCN4C(=O)c6ccccc6N(C)C54)c4ccccc34)C21 (centres unmarked) [3-2, N1,6-Bis-(evodiamin-N13-yl)hexane] | 131 to 133 °C | > 0.32 | > 0.12
29 | CN1c2ccccc2C(=O)N2CCc3c(n(CCO)c4ccccc34)C21 (centres unmarked) [4-1, N13-(2-Hyroxyethyl)evodiamine] | 166 to 168 °C | 0.32 (≈ 921 µM) | > 0.22
30 | CN1c2ccccc2C(=O)N2CCc3c(n(CC=NO)c4ccccc34)C21 (centres unmarked) [6-1, 2-(Evodiamin-N13-yl)acetaldehyde oxime] |  | 0.167 (≈ 463 µM) | 0.06 (≈ 166 µM)
31 | CON=CCn1c2c(c3ccccc31)CCN1C(=O)c3ccccc3N(C)C21 (centres unmarked) [6-2, 2-(Evodiamin-N13-yl)acetaldehyde O-methyl oxime] | 216 °C (dec.) | 0.16 (≈ 428 µM) | 0.06 (≈ 160 µM)
32 | CN1c2ccccc2C(=O)N2CCc3c(n(CCCC(=O)O)c4ccccc34)C21 (centres unmarked) [compound 5, 4-(Evodiamin-N13-yl)butyric acid] | 234 °C (dec.) | 0.154 (≈ 395 µM) | 0.06 (≈ 154 µM)
33 | CN1c2ccccc2C(=O)N2CCc3c(n(CC=O)c4ccccc34)C21 (centres unmarked) [compound 6, 2-(Evodiamin-N13-yl)acetaldehyde] |  | 0.174 (≈ 503 µM) | 0.06 (≈ 174 µM)
